Assay results: ChEMBL document CHEMBL1127453, “Benzimidazole ribonucleosides: design, synthesis, and antiviral activity of certain 2-(alkylthio)- and 2-(benzylthio)-5,6-dichloro-1-(beta-D-ribofuranosyl)benzimidazoles” (J Med Chem, 1994)

system: Human alphaherpesvirus 1; assay: Tested for anti-viral activity against Herpes simplex virus type-1 using ELISA.; type: functional, organism-based; settings: not given

Compound	IC50 [µM]
OC[C@H]1OC(n2c(SCc3ccc(Br)cc3)nc3cc(Cl)c(Cl)cc32)[C@H](O)[C@@H]1O (some centres not stated)	30
C=CCSc1nc2cc(Cl)c(Cl)cc2n1C1O[C@H](CO)[C@@H](O)[C@H]1O (some centres not stated)	> 100
C#CCSc1nc2cc(Cl)c(Cl)cc2n1C1O[C@H](CO)[C@@H](O)[C@H]1O (some centres not stated)	100
OC[C@H]1OC(n2c(SCc3cccc(Cl)c3)nc3cc(Cl)c(Cl)cc32)[C@H](O)[C@@H]1O (some centres not stated)	70
Nc1nc2c(ncn2COCCO)c(=O)[nH]1 [ACYCLOVIR]	1.7
N#CCSc1nc2cc(Cl)c(Cl)cc2n1C1O[C@H](CO)[C@@H](O)[C@H]1O (some centres not stated)	> 100
OC[C@H]1OC(n2c(SCc3ccc(F)cc3)nc3cc(Cl)c(Cl)cc32)[C@H](O)[C@@H]1O (some centres not stated)	> 30
OC[C@H]1OC(n2c(SCc3ccccc3Cl)nc3cc(Cl)c(Cl)cc32)[C@H](O)[C@@H]1O (some centres not stated)	60
O=[N+]([O-])c1cccc(CSc2nc3cc(Cl)c(Cl)cc3n2C2O[C@H](CO)[C@@H](O)[C@H]2O)c1 (some centres not stated)	50
Cc1cccc(CSc2nc3cc(Cl)c(Cl)cc3n2C2O[C@H](CO)[C@@H](O)[C@H]2O)c1 (some centres not stated)	38
CC(C)(C)c1ccc(CSc2nc3cc(Cl)c(Cl)cc3n2C2O[C@H](CO)[C@@H](O)[C@H]2O)cc1 (some centres not stated)	20
OC[C@H]1OC(n2c(SCc3ccc(Cl)c(Cl)c3)nc3cc(Cl)c(Cl)cc32)[C@H](O)[C@@H]1O (some centres not stated)	> 30
OC[C@H]1OC(n2c(SCc3ccc(Cl)cc3)nc3cc(Cl)c(Cl)cc32)[C@H](O)[C@@H]1O (some centres not stated)	> 30
Cc1ccc(CSc2nc3cc(Cl)c(Cl)cc3n2C2O[C@H](CO)[C@@H](O)[C@H]2O)cc1 (some centres not stated)	> 30
OC[C@H]1O[C@@H](n2cnc3cc(Cl)c(Cl)cc32)[C@H](O)[C@@H]1O [DICHLORORIBOBENZIMIDAZOLE]	30
OC[C@H]1OC(n2c(SCc3cccc(C(F)(F)F)c3)nc3cc(Cl)c(Cl)cc32)[C@H](O)[C@@H]1O (some centres not stated)	40
COc1ccc(CSc2nc3cc(Cl)c(Cl)cc3n2C2O[C@H](CO)[C@@H](O)[C@H]2O)cc1 (some centres not stated)	> 100
O=[N+]([O-])c1ccc(CSc2nc3cc(Cl)c(Cl)cc3n2C2O[C@H](CO)[C@@H](O)[C@H]2O)cc1 (some centres not stated)	40

system: Human betaherpesvirus 5; assay: Tested for the activity against human cytomegalovirus (HCMV) using yield reduction assay; type: functional; settings: not given

Compound	IC90 [µM]
Nc1nc2c(ncn2COCCO)c(=O)[nH]1 [ACYCLOVIR]	85
N#CCSc1nc2cc(Cl)c(Cl)cc2n1C1O[C@H](CO)[C@@H](O)[C@H]1O (some centres not stated)	10
Nc1nc2c(ncn2COC(CO)CO)c(=O)[nH]1 [GANCICLOVIR]	1.6
OC[C@H]1O[C@@H](n2cnc3cc(Cl)c(Cl)cc32)[C@H](O)[C@@H]1O [DICHLORORIBOBENZIMIDAZOLE]	19

system: Human betaherpesvirus 5; assay: Activity against human cytomegalovirus (HCMV) using plaque reduction assay; type: functional, organism-based; settings: not given

Compound	IC50 [µM]
CSc1nc2cc(Cl)c(Cl)cc2n1[C@@H]1O[C@@H](CO)[C@@H](O)[C@H]1O	> 100
OC[C@H]1OC(n2c(SCc3ccc(Br)cc3)nc3cc(Cl)c(Cl)cc32)[C@H](O)[C@@H]1O (some centres not stated)	30
C=CCSc1nc2cc(Cl)c(Cl)cc2n1C1O[C@H](CO)[C@@H](O)[C@H]1O (some centres not stated)	> 100
C#CCSc1nc2cc(Cl)c(Cl)cc2n1C1O[C@H](CO)[C@@H](O)[C@H]1O (some centres not stated)	25
OC[C@H]1OC(n2c(SCc3cccc(Cl)c3)nc3cc(Cl)c(Cl)cc32)[C@H](O)[C@@H]1O (some centres not stated)	25
Nc1nc2c(ncn2COCCO)c(=O)[nH]1 [ACYCLOVIR]	86
N#CCSc1nc2cc(Cl)c(Cl)cc2n1C1O[C@H](CO)[C@@H](O)[C@H]1O (some centres not stated)	30
OC[C@H]1OC(n2c(SCc3ccc(F)cc3)nc3cc(Cl)c(Cl)cc32)[C@H](O)[C@@H]1O (some centres not stated)	30
OC[C@H]1OC(n2c(SCc3ccccc3Cl)nc3cc(Cl)c(Cl)cc32)[C@H](O)[C@@H]1O (some centres not stated)	40
O=[N+]([O-])c1cccc(CSc2nc3cc(Cl)c(Cl)cc3n2C2O[C@H](CO)[C@@H](O)[C@H]2O)c1 (some centres not stated)	40
Cc1cccc(CSc2nc3cc(Cl)c(Cl)cc3n2C2O[C@H](CO)[C@@H](O)[C@H]2O)c1 (some centres not stated)	40
CC(C)(C)c1ccc(CSc2nc3cc(Cl)c(Cl)cc3n2C2O[C@H](CO)[C@@H](O)[C@H]2O)cc1 (some centres not stated)	20
OC[C@@H]1O[C@@H](n2c(S)nc3cc(Cl)c(Cl)cc32)[C@H](O)[C@@H]1O	> 100
OC[C@H]1OC(n2c(SCc3ccc(Cl)c(Cl)c3)nc3cc(Cl)c(Cl)cc32)[C@H](O)[C@@H]1O (some centres not stated)	28
OC[C@H]1OC(n2c(SCc3ccc(Cl)cc3)nc3cc(Cl)c(Cl)cc32)[C@H](O)[C@@H]1O (some centres not stated)	> 100
Cc1ccc(CSc2nc3cc(Cl)c(Cl)cc3n2C2O[C@H](CO)[C@@H](O)[C@H]2O)cc1 (some centres not stated)	30
Nc1nc2c(ncn2COC(CO)CO)c(=O)[nH]1 [GANCICLOVIR]	7.4
OC[C@H]1O[C@@H](n2cnc3cc(Cl)c(Cl)cc32)[C@H](O)[C@@H]1O [DICHLORORIBOBENZIMIDAZOLE]	42
OC[C@H]1OC(n2c(SCc3cccc(C(F)(F)F)c3)nc3cc(Cl)c(Cl)cc32)[C@H](O)[C@@H]1O (some centres not stated)	40
COc1ccc(CSc2nc3cc(Cl)c(Cl)cc3n2C2O[C@H](CO)[C@@H](O)[C@H]2O)cc1 (some centres not stated)	40
O=[N+]([O-])c1ccc(CSc2nc3cc(Cl)c(Cl)cc3n2C2O[C@H](CO)[C@@H](O)[C@H]2O)cc1 (some centres not stated)	40
O=C(O)P(=O)(O)O [FOSCARNET]	39
CS(=O)(=O)c1nc2cc(Cl)c(Cl)cc2n1C1O[C@H](CO)[C@@H](O)[C@H]1O (some centres not stated)	10

system: KB; assay: The inhibition of KB cell growth was determined; type: functional, cell-based; settings: Homo sapiens

Compound	IC50 [µM]
OC[C@H]1OC(n2c(SCc3ccc(Br)cc3)nc3cc(Cl)c(Cl)cc32)[C@H](O)[C@@H]1O (some centres not stated)	20
C=CCSc1nc2cc(Cl)c(Cl)cc2n1C1O[C@H](CO)[C@@H](O)[C@H]1O (some centres not stated)	68
C#CCSc1nc2cc(Cl)c(Cl)cc2n1C1O[C@H](CO)[C@@H](O)[C@H]1O (some centres not stated)	60
OC[C@H]1OC(n2c(SCc3cccc(Cl)c3)nc3cc(Cl)c(Cl)cc32)[C@H](O)[C@@H]1O (some centres not stated)	19
Nc1nc2c(ncn2COCCO)c(=O)[nH]1 [ACYCLOVIR]	> 100
N#CCSc1nc2cc(Cl)c(Cl)cc2n1C1O[C@H](CO)[C@@H](O)[C@H]1O (some centres not stated)	> 100
OC[C@H]1OC(n2c(SCc3ccccc3Cl)nc3cc(Cl)c(Cl)cc32)[C@H](O)[C@@H]1O (some centres not stated)	30
O=[N+]([O-])c1cccc(CSc2nc3cc(Cl)c(Cl)cc3n2C2O[C@H](CO)[C@@H](O)[C@H]2O)c1 (some centres not stated)	25
Cc1cccc(CSc2nc3cc(Cl)c(Cl)cc3n2C2O[C@H](CO)[C@@H](O)[C@H]2O)c1 (some centres not stated)	30
CC(C)(C)c1ccc(CSc2nc3cc(Cl)c(Cl)cc3n2C2O[C@H](CO)[C@@H](O)[C@H]2O)cc1 (some centres not stated)	50
OC[C@H]1O[C@@H](n2cnc3cc(Cl)c(Cl)cc32)[C@H](O)[C@@H]1O [DICHLORORIBOBENZIMIDAZOLE]	100
OC[C@H]1OC(n2c(SCc3cccc(C(F)(F)F)c3)nc3cc(Cl)c(Cl)cc32)[C@H](O)[C@@H]1O (some centres not stated)	15
COc1ccc(CSc2nc3cc(Cl)c(Cl)cc3n2C2O[C@H](CO)[C@@H](O)[C@H]2O)cc1 (some centres not stated)	41
O=[N+]([O-])c1ccc(CSc2nc3cc(Cl)c(Cl)cc3n2C2O[C@H](CO)[C@@H](O)[C@H]2O)cc1 (some centres not stated)	30

system: HFF cells (Homo sapiens); assay: Tested for the visual cytotoxicity on HFF cells at the time of human cytomegalovirus (HCMV) plaque enumeration; settings: not given

Compound	IC50 [µM]
CSc1nc2cc(Cl)c(Cl)cc2n1[C@@H]1O[C@@H](CO)[C@@H](O)[C@H]1O	> 100
OC[C@H]1OC(n2c(SCc3ccc(Br)cc3)nc3cc(Cl)c(Cl)cc32)[C@H](O)[C@@H]1O (some centres not stated)	32
C=CCSc1nc2cc(Cl)c(Cl)cc2n1C1O[C@H](CO)[C@@H](O)[C@H]1O (some centres not stated)	24
C#CCSc1nc2cc(Cl)c(Cl)cc2n1C1O[C@H](CO)[C@@H](O)[C@H]1O (some centres not stated)	100
OC[C@H]1OC(n2c(SCc3cccc(Cl)c3)nc3cc(Cl)c(Cl)cc32)[C@H](O)[C@@H]1O (some centres not stated)	21
Nc1nc2c(ncn2COCCO)c(=O)[nH]1 [ACYCLOVIR]	> 100
N#CCSc1nc2cc(Cl)c(Cl)cc2n1C1O[C@H](CO)[C@@H](O)[C@H]1O (some centres not stated)	100
OC[C@H]1OC(n2c(SCc3ccc(F)cc3)nc3cc(Cl)c(Cl)cc32)[C@H](O)[C@@H]1O (some centres not stated)	21
OC[C@H]1OC(n2c(SCc3ccccc3Cl)nc3cc(Cl)c(Cl)cc32)[C@H](O)[C@@H]1O (some centres not stated)	32
O=[N+]([O-])c1cccc(CSc2nc3cc(Cl)c(Cl)cc3n2C2O[C@H](CO)[C@@H](O)[C@H]2O)c1 (some centres not stated)	32
Cc1cccc(CSc2nc3cc(Cl)c(Cl)cc3n2C2O[C@H](CO)[C@@H](O)[C@H]2O)c1 (some centres not stated)	32
CC(C)(C)c1ccc(CSc2nc3cc(Cl)c(Cl)cc3n2C2O[C@H](CO)[C@@H](O)[C@H]2O)cc1 (some centres not stated)	32
OC[C@@H]1O[C@@H](n2c(S)nc3cc(Cl)c(Cl)cc32)[C@H](O)[C@@H]1O	100
OC[C@H]1OC(n2c(SCc3ccc(Cl)c(Cl)c3)nc3cc(Cl)c(Cl)cc32)[C@H](O)[C@@H]1O (some centres not stated)	32
OC[C@H]1OC(n2c(SCc3ccc(Cl)cc3)nc3cc(Cl)c(Cl)cc32)[C@H](O)[C@@H]1O (some centres not stated)	100
Cc1ccc(CSc2nc3cc(Cl)c(Cl)cc3n2C2O[C@H](CO)[C@@H](O)[C@H]2O)cc1 (some centres not stated)	32
Nc1nc2c(ncn2COC(CO)CO)c(=O)[nH]1 [GANCICLOVIR]	> 100
OC[C@H]1O[C@@H](n2cnc3cc(Cl)c(Cl)cc32)[C@H](O)[C@@H]1O [DICHLORORIBOBENZIMIDAZOLE]	24
OC[C@H]1OC(n2c(SCc3cccc(C(F)(F)F)c3)nc3cc(Cl)c(Cl)cc32)[C@H](O)[C@@H]1O (some centres not stated)	32
COc1ccc(CSc2nc3cc(Cl)c(Cl)cc3n2C2O[C@H](CO)[C@@H](O)[C@H]2O)cc1 (some centres not stated)	66
O=[N+]([O-])c1ccc(CSc2nc3cc(Cl)c(Cl)cc3n2C2O[C@H](CO)[C@@H](O)[C@H]2O)cc1 (some centres not stated)	32
O=C(O)P(=O)(O)O [FOSCARNET]	> 100
CS(=O)(=O)c1nc2cc(Cl)c(Cl)cc2n1C1O[C@H](CO)[C@@H](O)[C@H]1O (some centres not stated)	10
